From ChEMBL document CHEMBL5370598, “[3H]UR-JG102-A Radiolabeled Cyclic Peptide with High Affinity and Excellent Selectivity for the Neuropeptide Y Y4 Receptor” (J Med Chem, 2023)
Starred links: 1 amine or outer side, 2 acyl side, 3 side chain; linkers in the order of their positions; H or OH if unused. Positions of bridges follow the written chain, without caps; N, C: chain ends. Non-standard residues stand in square brackets, D forms with d. Residues, ends and D or L forms follow the SMILES beside them. *: point of attachment. Arg(Nω-CO) = N/C(=N\C(=O)[*:3])NCCC[C@H](N[*:1])C(=O)[*:2]; Ethylenediamine = C(CN[*:2])N[*:1]; Propionyl = CCC(=O)*

How the values were obtained:
[1] = target: T1, Neuropeptide Y receptor type 4 (Homo sapiens, UniProt P50391); assay: Agonist activity at human Y4R expressed in CHO cells co-expressing Gqi5-mtAEQ by calcium2+ aequorin assay relative to control; type: functional, cell-based; details: filed as agonist
[2] = target: T1, Neuropeptide Y receptor type 4; assay: Displacement of [3H]UR-KK200 from human Y4R expressed in CHO cells co-expressing Gqi5-mtAEQ; type: cell-based
[3] = target: T1, Neuropeptide Y receptor type 4; assay: Agonist activity at human Y4R expressed in HEK293T cells incubated for 60 mins by cAMP CAMYEN assay relative to control; type: functional, cell-based; details: filed as agonist
[4] = target: T2, Neuropeptide Y receptor type 2 (Homo sapiens, UniProt P49146); assay: Displacement of [3H]propionyl-pNPY from human Y2R expressed in CHO cells; type: cell-based
T2 sequence (P49146 whole entry): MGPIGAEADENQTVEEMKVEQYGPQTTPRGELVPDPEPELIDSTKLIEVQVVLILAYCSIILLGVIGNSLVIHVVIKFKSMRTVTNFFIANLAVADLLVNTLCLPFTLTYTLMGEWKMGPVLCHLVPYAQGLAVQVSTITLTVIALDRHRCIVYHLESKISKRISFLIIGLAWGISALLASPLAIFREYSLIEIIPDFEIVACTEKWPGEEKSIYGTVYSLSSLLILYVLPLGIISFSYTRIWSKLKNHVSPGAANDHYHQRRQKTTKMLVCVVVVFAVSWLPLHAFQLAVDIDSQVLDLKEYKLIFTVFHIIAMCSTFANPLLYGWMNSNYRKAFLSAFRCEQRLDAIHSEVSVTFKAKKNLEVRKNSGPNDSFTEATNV

[5] = target: T3, Neuropeptide Y receptor type 5 (Homo sapiens, UniProt Q15761); assay: Displacement of [3H]propionyl-pNPY from human Y5R expressed in HEC-1B cells; type: cell-based, HEC-1B cell line
T3 sequence (Q15761 whole entry): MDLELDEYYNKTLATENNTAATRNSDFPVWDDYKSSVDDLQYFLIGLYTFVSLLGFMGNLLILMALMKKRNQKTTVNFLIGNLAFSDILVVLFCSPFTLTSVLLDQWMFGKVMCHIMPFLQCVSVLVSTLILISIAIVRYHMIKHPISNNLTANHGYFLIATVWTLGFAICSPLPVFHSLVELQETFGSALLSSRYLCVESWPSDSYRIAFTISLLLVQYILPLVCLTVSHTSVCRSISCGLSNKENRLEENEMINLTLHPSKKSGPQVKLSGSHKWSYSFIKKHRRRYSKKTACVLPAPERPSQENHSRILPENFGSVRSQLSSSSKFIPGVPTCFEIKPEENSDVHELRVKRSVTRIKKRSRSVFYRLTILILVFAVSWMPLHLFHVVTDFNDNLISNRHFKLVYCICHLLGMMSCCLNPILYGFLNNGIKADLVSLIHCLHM

[6] = target: T1, Neuropeptide Y receptor type 4; assay: Agonist activity at human Y4R expressed in HEK293T cells by miniGsi assay; type: functional, cell-based
[7] = target: T4, Neuropeptide Y receptor type 1 (Homo sapiens, UniProt P25929); assay: Displacement of [3H]UR-MK299 from human Y1R expressed in SK-N-MC cells; type: cell-based
T4 sequence (P25929 whole entry): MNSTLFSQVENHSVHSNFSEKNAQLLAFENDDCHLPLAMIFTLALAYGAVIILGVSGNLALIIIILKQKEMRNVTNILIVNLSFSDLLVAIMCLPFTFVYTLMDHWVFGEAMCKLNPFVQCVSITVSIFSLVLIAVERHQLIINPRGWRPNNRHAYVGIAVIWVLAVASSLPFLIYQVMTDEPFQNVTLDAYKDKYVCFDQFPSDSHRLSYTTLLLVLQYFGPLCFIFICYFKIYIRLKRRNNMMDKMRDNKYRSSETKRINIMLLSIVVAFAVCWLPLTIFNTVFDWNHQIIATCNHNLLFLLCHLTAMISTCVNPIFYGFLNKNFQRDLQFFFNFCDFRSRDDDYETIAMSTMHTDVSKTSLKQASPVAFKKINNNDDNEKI

[8] = target: T1, Neuropeptide Y receptor type 4; assay: Agonist activity at human Y4R expressed in HEK293T cells by miniGsi assay relative to control; type: functional, cell-based; details: filed as agonist
[9] = target: T1, Neuropeptide Y receptor type 4; assay: Agonist activity at human Y4R expressed in CHO cells co-expressing Gqi5-mtAEQ by calcium2+ aequorin assay; type: functional, cell-based
[10] = target: T1, Neuropeptide Y receptor type 4; assay: Agonist activity at human Y4R expressed in HEK293T cells incubated for 60 mins by cAMP CAMYEN assay; type: functional, cell-based
[11] = target: T1, Neuropeptide Y receptor type 4; assay: (§1) Displacement of [3H]-(9S,12S,15S,19R,E)-4-amino-N-((S)-1-(((S)-1-(((S)-1-amino-3-(4-hydroxyphenyl)-1-oxopropan-2-yl)amino)-5-guanidino-1-oxopentan-2-yl)amino)-4-methyl-1-oxopentan-2-yl)-15-(3-guanidinopropyl)-12-(4-hydroxybenzyl)-2,11,14,17,20-pentaoxo-19-(4-(propanamido-2,3-t2)butanamido)-1,3,5,10,13,16,21-heptaazacyclopentacos-3-ene-9-carboxamide from human Y4R expressed in CHO cells coexpressing Gqi5-mtAEQ under hypotonic sodium free buffer condition; type: cell-based
[12] = target: T1, Neuropeptide Y receptor type 4; assay: as §1, with “isotonic” for “hypotonic”, “containing” for “free”; type: cell-based

T1 sequence (P50391 whole entry): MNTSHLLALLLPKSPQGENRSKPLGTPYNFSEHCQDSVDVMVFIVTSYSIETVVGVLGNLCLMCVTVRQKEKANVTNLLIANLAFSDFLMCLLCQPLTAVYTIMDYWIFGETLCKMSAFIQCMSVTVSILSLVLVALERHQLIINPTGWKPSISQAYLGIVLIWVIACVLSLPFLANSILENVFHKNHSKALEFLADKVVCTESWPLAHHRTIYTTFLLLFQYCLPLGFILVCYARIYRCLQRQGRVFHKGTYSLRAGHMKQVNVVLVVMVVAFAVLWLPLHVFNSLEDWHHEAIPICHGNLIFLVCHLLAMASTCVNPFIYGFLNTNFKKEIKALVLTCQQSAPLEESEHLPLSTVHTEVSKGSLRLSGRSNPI

Compound | Emax [1] [%] | Ki ([2]; read-out: Ki) [nM] | Emax [3] [%] | Ki ([4]; cho, read-out: Ki) [nM] | Ki ([4]; read-out: pKi (converted)) [nM] | Ki ([5]; hec-1b cell line, read-out: Ki) [nM] | Ki ([5]; read-out: pKi (converted)) [nM] | EC50 [6] [nM] | Ki ([7]; read-out: pKi (converted)) [nM] | Ki ([7]; sk-n-mc, read-out: Ki) [nM] | Emax [8] [%] | EC50 ([9]; read-out: EC50) [nM] | EC50 ([9]; read-out: pEC50 (converted)) [nM] | EC50 ([10]; read-out: EC50) [nM] | further results
CCC(=O)N[C@H]1CC(=O)NCCCCNC(=O)/N=C(\N)NCCC[C@@H](C(=O)N[C@@H](CC(C)C)C(=O)N[C@@H](CCCNC(=N)N)C(=O)N[C@@H](Cc2ccc(O)cc2)C(N)=O)NC(=O)[C@H](Cc2ccc(O)cc2)NC(=O)[C@H](CCCNC(=N)N)NC1=O | 64 | 0.11 | 83 | > 10000 | > 10000 | > 1000 | > 1000 | 8.1 | > 1000 | > 1000 | 46 | 23 | 20 | 0.2 | –
CCC(=O)N[C@H]1CC(=O)N[C@@H](CCCNC(=N)N)C(=O)N[C@@H](Cc2ccc(O)cc2)C(=O)N[C@H](C(=O)N[C@@H](CC(C)C)C(=O)N[C@@H](CCCNC(=N)N)C(=O)N[C@@H](Cc2ccc(O)cc2)C(N)=O)CCCN/C(N)=N/C(=O)NCCCCNC1=O | 80 | 0.15 | 82 | > 10000 | > 10000 | > 1000 | > 1000 | 3.8 | > 1000 | > 1000 | 58 | 24 | 22.4 | 0.13 | –
CC(C)C[C@H](NC(=O)[C@@H]1CCCNC(=N)NC(=O)NCCCCNC(=O)CCC(=O)N[C@@H](CCCNC(=N)N)C(=O)N[C@@H](Cc2ccc(O)cc2)C(=O)N1)C(=O)N[C@@H](CCCNC(=N)N)C(=O)N[C@@H](Cc1ccc(O)cc1)C(N)=O | 100 | – | 113 | – | – | – | – | – | – | – | – | – | – | 0.17 | Ki ([11]; read-out: Ki): 0.011 nM; Ki ([11]; read-out: pKi (converted)): 0.00912 nM; Ki ([12]; read-out: Ki): 0.076 nM; Ki ([12]; read-out: pKi (converted)): 0.0741 nM; EC50 ([10]; read-out: pEC50 (converted)): 0.162 nM
CCC(=O)N[C@H]1CCC(=O)NCCNC(=O)/N=C(\N)NCCC[C@@H](C(=O)N[C@@H](CC(C)C)C(=O)N[C@@H](CCCNC(=N)N)C(=O)N[C@@H](Cc2ccc(O)cc2)C(N)=O)NC(=O)[C@H](Cc2ccc(O)cc2)NC(=O)[C@H](CCCNC(=N)N)NC1=O (Propionyl-ERY[Arg(Nω-CO)]LRY-NH2; linker 1-4 via Ethylenediamine) | 66 | 0.26 | 86 | – | > 3160 | > 1000 | > 1000 | 19 | > 1000 | > 1000 | 70 | 71 | – | 0.41 | Ki ([4]; read-out: Ki): > 3000 nM
CC(C)C[C@H](NC(=O)[C@@H]1CCCN/C(N)=N/C(=O)NCCNC(=O)CC[C@H](N)C(=O)N[C@@H](CCCNC(=N)N)C(=O)N[C@@H](Cc2ccc(O)cc2)C(=O)N1)C(=O)N[C@@H](CCCNC(=N)N)C(=O)N[C@@H](Cc1ccc(O)cc1)C(N)=O (H-ERY[Arg(Nω-CO)]LRY-NH2; linker 1-4 via Ethylenediamine) | 65 | 0.17 | – | > 10000 | > 10000 | > 1000 | > 1000 | 10 | > 1000 | > 1000 | 67 | 60 | – | – | –
CC(C)C[C@H](NC(=O)[C@@H]1CCCN/C(N)=N/C(=O)NCCCCNC(=O)[C@@H](N)CC(=O)N[C@@H](CCCNC(=N)N)C(=O)N[C@@H](Cc2ccc(O)cc2)C(=O)N1)C(=O)N[C@@H](CCCNC(=N)N)C(=O)N[C@@H](Cc1ccc(O)cc1)C(N)=O | 85 | 0.026 | – | > 10000 | > 10000 | > 1000 | > 1000 | 1.1 | > 1000 | > 1000 | 59 | 5 | – | – | Ki ([2]; read-out: pKi (converted)): 0.0245 nM
